Reference: paper PMC5578959, “Selective LRRK2 kinase inhibition reduces phosphorylation of endogenous Rab10 and Rab12 in human peripheral mononuclear blood cells” (Scientific Reports, 2017)

What was measured:
Rab12-pSer106 = assay: Western Blot, HEK293 cells co-expressing HA-Rab12 and LRRK2 variants; format: cell-based, human; settings: 100 nM; HEK293 co-overexpressing HA-Rab12 and LRRK2 WT, G2019S or R1441C
Procedure: Plasmids encoding various LRRK2 and Rab GTPase protein variants were transiently expressed in HEK293 cells using Lipofectamine®2000 according to the manufacturer’s instructions (Thermo Fisher Scientific, US).
HEK293 cells were plated at a density of 1 × 10^6 cells/well in 6-well plates pre-coated for 1 hr at 37 °C with poly-L-lysin. Subsequent to the transient transfection HEK293 cells were harvested using 1 mL cold Phosphate Buffered Saline (PBS) buffer (Invitrogen, California, US) and subsequently centrifuged at 800 g for 2 minutes. Cell pellets were resuspended and solubilized in 100 µL lysis buffer (50 mM Tris hydrochloride, 1 mM magnesium chloride, 1% Triton, 0.1% sodium dodecyl sulfate (SDS), pH 8.0) on ice for 20 minutes and then centrifuged at 20,000 g for 30 minutes at 4 °C. The solubilized crude cell lysate was size mobility separated by SDS-polyacrylamide gel electrophoresis (SDS-PAGE). LRRK2 was separated on a 3–8% Tris-Acetate gel (NuPAGE® Tris-Acetate Mini Gels, Life Technologies, Paisley, UK) and Rab10 and Rab12 were separated using a NuPAGE® Novex 4–12% Bis-Tris Gel (Invitrogen, California, US). An amount of 10 µg total protein was loaded in each well. Proteins were transferred to immobilon-FL PVDF membranes (Millipore, Billerica, US).

ZC2/TNIK = tested on: T1, ZC2/TNIK; assay: KiNativ profiling in human PBMCs; format: binding; settings: Lys1
T1 construct: purchased ActivX Technologies (KiNativ)

p38b = tested on: T2, p38b; assay: KiNativ profiling in human PBMCs; format: binding; settings: Protein Kinase Domain
T2 construct: purchased ActivX Technologies (KiNativ)

FYN = tested on: T3, FYN; assay: KiNativ profiling in human PBMCs; format: binding; settings: Lys1
T3 construct: purchased ActivX Technologies (KiNativ)

With `Cc1cccc(-c2cc(Nc3ccn(C)n3)nc3[nH]cc(C#N)c23)c1` [Lu AF58786] the “phosphorylation of Rab12 (pSer106)” value (Rab12-pSer106) was “statistically significant reduction”.

With `Cn1cc(-c2c[nH]c3ncnc(N4CCOCC4)c23)cc1C#N` [PFE-360] the “% Inhibition” value (ZC2/TNIK; 0.1µM) was -31.6%, the “% Inhibition” value (ZC2/TNIK; 1µM) was 12.3% and the “% Inhibition” value (p38b; 0.1µM) was 3.5%. For the same compound, the “% Inhibition” value (p38b; 1µM) was 7%, the “% Inhibition” value (FYN; 0.1µM) was -23.9% and the “% Inhibition” value (FYN; 1µM) was -19%.
